Test results as given in US7781594B2, “5-(4-methanesulfonyl-phenyl)-thiazole derivatives for the treatment of acute and chronic inflammatory diseases” (Faes Farma, S.A., priority 2008, dated 2010).

What was measured:
Format in all cases: cell-based, human
TNF-alpha [1] = assay: TNF-alpha production by PBMC of healthy volunteers, ELISA
Experimental: In order to quantify the serum cytokines concentration, the extracted blood was stored in tubes both with and without anti-coagulant (collected by antecubital venopunction and arterial catheter, respectively). Blood was allowed to coagulate at room temperature in the laboratory, further separating the serum by centrifugation (600×g during 20 minutes). Supernatant were collected, filtered, divided in aliquotes and stored at −70° C. Concentration assays for different cytokines were performed by using the commercial kits described in Table 2.
Supernatants were unfrozen up to the room temperature and faced against the respective anti-cytokine by fixing them in the plate bottom and incubating them during a variable time. […] The results were assessed with the enzymo-immunoanalysis reader Multititer Plus (Tiertek Multiscan Plus, Flow Laboratories). […]
Effects of compound 12 on TNF-alpha production by PBMC of healthy volunteers in the presence or in the absence of LPS were first investigated. […] Supernatant of cultures were frozen at −20° C. and the concentration of TNF-alpha was quantified with ELISA species-specific (enzyme-linked immunosorbent assay for quantitative detection of tumour necrosis factor-alpha: human TNF-alpha ELISA BM S223/4TEUCE, Bender Med System Inc, Burlinghane Calif. 94010).

TNF-alpha [2] = assay: TNF-alpha production by PBMC of healthy volunteers, Cytometric Bead Array
IL-8 [3] = assay: IL-8 production by PBMC from healthy volunteers, CBA
Experimental: (§1) CBA protocol was followed according to the manufacturer's instructions. The election of microparticles was performed following the summary of FIG. 1.
(§2) The acquisition on samples was performed with the BD FACS Array Bioanalyser System (FACSArray, Becton Dickinson, San José, Calif., USA) and the analysis of the results was completed with the software FCAP Array (Becton Dickinson) in a PC computer.
(§3) Briefly, the experimental protocol consisted of a plate pre-washing out with Wash Buffer. After decantation, the mixture of capture microparticles was re-suspended in the vortex. Standards and samples were added in the adequate dilution. After permanent stirring incubation during 1 h, the PE detection reagent was added and incubated again during 2 h at room temperature. After a washing-out, the acquisition was performed in the flow cytometer.
The effect of compound 12 on the IL-8 production by the PBMC from healthy volunteers was further investigated, both in the presence and absence of LPS stimuli and monoclonal antibodies anti-CD3 and anti-CD28. PBMC (5×10^4 cells/well) from 13 healthy volunteers were cultured in duplicate in 200 μl of complete medium supplemented with the highest solvent concentration (10^−6 M), and 10^−6 M, 10^−7 M and 10^−8 M of compound 12, in the presence and absence of either LPS (10 μg/ml) or anti-CD3 (12.5 ng/ml)+anti-CD28 (⅓×10^5), during 24 hours. Culture supernatants were frozen at −20° C. and IL-8 concentration was quantified by BD FACS Array Bioanalyser by using CBA Flex Set, specific to determine the IL-8 concentration, following the manufacturer instructions.

IL-8 [4] = assay: IL-8 production by PBMC from patients with rheumatoid arthritis, CBA
Experimental: as §1, §2, §3
The effect on IL-8 production by PBMC from patients with rheumatoid arthritis was also studied. […] Culture supernatants were frozen at −20° C. and IL-8 concentration was quantified by BD FACS Array Bioanalyser by using CBA Flex Set, specific to determine IL-8 concentration, following the manufacturer instructions.

CD62L in lymphocytes = assay: Shedding of CD62L in lymphocytes of PBMC, flow cytometry; details: healthy volunteers; 10^−6 M; p<0.05; FIG. 12a
Experimental: Direct immuno-fluorescence techniques of one colour with monoclonal antibodies phycoerythrin-labeled (PE) was used. PE is a fluorescent substance excitable with a 488 nm laser, which emits at 570 nm, and it is detectable and easily distinguishable by a flow cytometer. By using the antibody described in Table 1, a direct labelling was performed:
PBMC labelling: the process consisted in a labelling using 96 well V bottom plates. In each well, 5×10^4 cells are located, and afterwards centrifugated at 400×g during 5 minutes. After washing-out, cells are re-suspended and 5 μl of the corresponding monoclonal antibody are added. Cells are again re-suspended and the plate is incubated in darkness, during 20 minutes, at 4° C. Subsequently, 150 μl PBS are added and two wash-outs are performed. Finally, it is re-suspended in 150 μl PBS and collected in a cytometer tube, adding PBS up to a final volume of 0.3 ml.
For the counting, a FACSCalibur flow cytometer equipped with argon laser tuned at 488 nm was used in order to induce phycoerythrin fluorescence. The equipment, apart from the fluorescence channels, also provided information about the size (FSC) and cellular complexity (SSC).
As negative controls, the study cells with no labelling and other irrelevant labelled with monoclonal antibodies of equal isotypes than the ones used in the study (IgG1-FITC, PE y TC, IgG2a FITC, PE, TC), were used. […]

Cc1nc(OC2CCCC2)c(-c2ccc(S(C)(=O)=O)cc2)s1 [Compound 12, 4-cyclopentyloxy-5-(4-methylsulfonyl-phenyl)-2-methyl-thiazole]
Effect on TNF-alpha concentration in the supernatant of LPS-stimulated PBMC (TNF-alpha [1]; 10^−6 M and 10^−7 M, LPS, p<0.05 vs vehicle, FIG. 2): diminished in a statistically significant manner | Effect on spontaneous TNF-alpha production by PBMC (TNF-alpha [1]; 10^−6 M, no stimulus): lowered the spontaneous TNF-alpha production | Effect on TNF-alpha production by PBMC stimulated with LPS (TNF-alpha [2]; 10^−6 M, 10^−7 M and 10^−8 M, statistically significant (p<0.05), FIG. 3): diminished TNF-alpha production | Effect on TNF-alpha secretion by PBMC, anti-CD3 and anti-CD28 stimulated or spontaneous (TNF-alpha [2]; anti-CD3 + anti-CD28, or absence of exogenous stimuli): neither TNF-alpha secretion by PBMC stimulated with monoclonal antibodies anti-CD3 and anti-CD28 nor spontaneous one (as observed in the absence of exogenous stimuli) was modified | Effect on IL-8 production under LPS stimulation of PBMC (IL-8 [3]): no effects were observed | Effect on spontaneous production of IL-8 by PBMC (IL-8 [3]; 10^−6 M and 10^−7 M, p<0.05, FIG. 7): significantly inhibited | Effect on IL-8 production induced by anti-CD3 and anti-CD28 (IL-8 [3]; 10^−8 M): significant inhibition | Effect on IL-8 production by PBMC, spontaneous or anti-CD3 and anti-CD28 induced (IL-8 [4]): neither modified the spontaneous IL-8 production nor that induced by the combination of monoclonal antibodies anti-CD3 and anti-CD28 | Effect on LPS-induced production of IL-8 in PBMC (IL-8 [4]; 10^−6 M and 10^−8 M, FIG. 8): significantly inhibited | Effect on CD62L shedding in lymphocytes (CD62L in lymphocytes): increases significantly
